SMILES strings stand for the structures. ≈ marks a conversion by molar mass, not a printed value. Read-outs that look alike come from different tables or passages of the source.

The term IC50 denotes the concentration that inhibits the measured activity by half.

Assay [1] concerns FANCD2 in HeLa cell extracts. The assay is described as follows: Western blot for FANCD2. The format is cell-based, human. To be noted: 0.5 μg/mL mitomycin C or 7.5 μg/mL cisplatin, 4 hours, no bacteria. The protocol:
Western Blot for FANCD2. Infections were carried out as described above. For conditions which involved other small molecules, no bacteria were introduced during the infection and cells were treated with either 0.5 μg/mL mitomycin C (MMC) or 7.5 μg/mL cisplatin under the same conditions for 4 hours. 20 hours after infection, cells were lysed directly in the culture wells (Lysis buffer: 50 mM Tris, (pH 8.0), 150 mM NaCl, 1% Triton X-100, 0.5% Sodium deoxycholate, 0.05% sodium dodecylsulfate, 1 mM MgSO4, SIGMAFAST Protease inhibitor mix, 100 U/mL benzonase (Millipore-Sigma). Lysates were then spun down at 16,000×g to remove particulates and the supernatant was mixed 1:1 with 2X Laemmli sample buffer (Bio-Rad) containing 50 mg/mL dithiothreitol (DTT). Samples were then heated at 70° C. for 10 minutes and run on an SDS-PAGE gel (3-8% Tris-Acetate Novex gel, Invitrogen) at 150 V for 1.5 hours at 4° C. Bands were then transferred to PVDF membranes (100 V, 1 hour at 4° C.) and blocked with 10% skim milk powder in TBST buffer at 4° C. overnight. Blots were probed sequentially with either mouse anti-actin (1.5 μg/mL) or mouse anti-FANCD2 (0.1 μg/mL) primary antibodies (Thermo Fisher Scientific, Catalog #MA511869 and MA123347), followed by a peroxidase-conjugated goat anti-mouse secondary antibody (Jackson ImmunoResearch product 115-035-003, 0.08 μg/mL). Each probing step was conducted for 90 minutes at room temperature n 2.5% skim milk powder in TBST. Before imaging, blots were washed 3×15 minutes each in TBST […]. Blots were imaged using the SuperSignal™ West Pico PLUS Chemiluminescent Substrate (Thermo Fisher Scientific) kit following the manufacturer's instructions and imaged using an Azure Biosystems c300 imager.
(In western blotting, separated proteins are transferred to a membrane and probed.)

Assay [2] has as its system Enterococcus faecalis. Put plainly: Bacterial MIC assay (broth dilution). Type of assay: cell-based. To be noted: read-out: MICs by compound. In general terms: In broth dilution the organism is exposed to a series of concentrations in liquid medium.
In assay [3] the test system is Lactobacillus rhamnosus. Put plainly: Bacterial MIC assay (broth dilution). Type of assay: cell-based. To be noted: Lacticaseibacillus rhamnosus, read-out: MICs by compound.
Assay [4] concerns Klebsiella oxytoca. The assay is described as follows: Bacterial MIC assay (broth dilution). The format is cell-based. Particulars: read-out: MICs by compound.
Assay [5] concerns Escherichia coli NC101. The assay is described as follows: Bacterial MIC assay (broth dilution). Type of assay: cell-based. To be noted: read-out: MICs by compound. As for the experimental part:
(§1) MICs of compounds against different bacterial species were determined using a modified version of a broth microdilution protocol which has been previously reported.^1 Briefly, cultures of each species indicated were inoculated from frozen stocks in deoxygenated Wilkins-Chalgren Anaerobic Medium (WCAM) inside of an anerobic chamber with an 92.5% N2/5% CO2/2.5% H2 atmosphere. Cultures were grown for 24-48 hours in a 37° C. incubator at which point an OD600-measurement was taken for each culture and was accordingly diluted in fresh WCAM to an equivalent of OD600=0.01. Diluted cultures were then distributed into the wells of a clear, flat-bottom 384-well plate and the compound of interest was added to a final DMSO concentration of 2% (or DMSO only for positive controls). […] mineral oil (Millipore Sigma) was deposited on top of the cultures and plates were covered with a clear adhesive plate seal. Plates were incubated at 37° C. for 16 hours, at which point the OD600 of all wells was recorded on a SpectraMax M2 plate reader (Molecular Devices).

The test system of assay [6] is Bifidobacterium longum. Put plainly: Bacterial MIC assay (broth dilution). The format is cell-based. To be noted: read-out: MICs by compound.
Assay [7] has as its target E. coli BL21 overexpressing ClbP (Escherichia coli, UniProt Q0P7K6). Put plainly: ClbP fluorescence activity assay (live cells). The format is cell-based. The protocol:
ClbP fluorescence activity assay (live cells). One 5 mL starter culture each E. coli BL21 pET-29b-ClbP and pET-29b-ClbP-S95A were inoculated from frozen stocks and grown overnight at 37° C. in LB medium supplemented with 50 μg/ml kanamycin (LB+kan). Overnight cultures were diluted 1:100 in fresh LB+kan and incubated at 37° C. to an OD600 of 0.3, at which point protein expression was induced by the addition of 500 μM isopropyl β-D-1-thiogalactopyranoside (IPTG) and cultures were moved to 15° C. for 4 hours. Cultures were then aliquoted in a black 384-well plate and the appropriate concentration of inhibitor was added as a DMSO stocks to a final concentration of 1% DMSO in a volume of 30 μL. Reactions were initiated by the addition of 10 μL of LB+kan+IPTG containing the fluorogenic substrate (final concentration=100 μM). Plastes were incubated at 25° C. with intermittent shaking while taking regular fluorescence measurements in a Bio-Tek Synergy HTX multimode plate reader with an excitation filter of 360/40 nm and an emission filter of 440/20 nm. “% activity” was determined based on the formula above using RFU measurements after 7 hours.

Assay [8] concerns the target purified ClbP (Escherichia coli, UniProt Q0P7K6). Put plainly: ClbP fluorescence activity assay (in vitro). Type of assay: biochemical, Escherichia coli CFT073. Particulars: for speed of reaching maximum potency, in words: slow-binding inhibition assay, 100 nM. An excerpt: Constructs and protein purification for in vitro assays. ClbP constructs described in this publication were derived from a previously described plasmid containing the Escherichia coli CFT073 ClbP sequence (GenBank ID: NP_754344.1) inserted between the NdeI and XhoI restriction sites of pET29b (Addgene plasmid #48244).^14 All in vitro experiments used a construct bearing a C-terminal 10×His tag. This longer polyhistidine-tag was obtained by extension of the previously described 6×His tag through site-directed mutagenesis. All site-directed mutations were introduced using the Quikchange mutagenesis protocol (Stratagene) and confirmed by Sanger DNA sequencing of the whole open reading frame. Plasmids were transformed into chemically competent C41(DE3) (Lucigen) cells and proteins were isolated as previously described.^34
ClbP fluorescence activity assay (in vitro). Assays were performed in a buffer containing 50 mM Tris, 200 mM NaCl, 0.02% w/v DDM at pH 8.0 with 25 nM purified ClbP and 25 μM fluorogenic substrate in a total volume of 20 μL.^34 Purified ClbP was defrosted on ice from stocks stored at −80° C. Stocks were diluted to 50 nM enzyme in assay buffer in the wells of a black, flat-bottom 384-well plate and the appropriate inhibitor in DMSO or DMSO was added to a final concentration of 1%. For experiments testing different inhibitor concentrations, reactions were allowed to sit for 1 hour at room temperature. For experiments testing different preincubation times, the inhibitor in DMSO was added to each reaction X minutes before initiating the reaction, where X is the time indicated on the x-axis for that sample. For experiments to test whether hydrolysis of the boronic ester was rate-limiting, the inhibitor was added to buffer with no enzyme present and allowed to sit at room temperature for the time indicated before adding the enzyme. In all cases, reactions were initiated by the addition of 10 μL, of buffer containing the 50 μM fluorogenic substrate to achieve a final concentration of 25 μM and pipetting once with a multichannel pipette to mix. Reaction progress was monitored in a plate reader (Bio-Tek Synergy HTX multimode plate reader) with an excitation filter of 360/40 nm and an emission filter of 440/20 nm. “% activity” was determined based on the measured relative fluorescence units (RFU) of each condition after 1 hour using the following formula: […]

In assay [9] the test system is a variety of bacterial strains from common gut phyla, including E. coli. Put plainly: Turbidity MIC assay, all strains together. To be noted: Escherichia coli; all strains tested; upper limit tested 200 μM; read-out: MICs in liquid culture. The format is cell-based.
Excerpt: Compound 3 is an inhibitor of colibactin-associated genotoxicity. Since colibactin is produced in the context of the gut microbiota, it is essential to understand how 3 can affect other members of this community and whether it remains an effective inhibitor under these conditions. […] A turbidity assay was used to determine minimum inhibitory concentrations (MICs) in liquid culture of 1-4 against a variety of bacterial strains from common gut phyla, including E. coli (Table 3).
as §1

Assay [10] has as its system ClbP. The assay is described as follows: LC-MS quantitation of N-myristoyl-D-Asn produced by pks+ E. coli. The format is cell-based, E. coli BW25113 BACpks. Particulars: pks+ E. coli (BW pks), versus DMSO. The protocol: LC-MS quantitation of N-myristoyl-D-Asn produced by pks^+ E. coli. One 5 mL starter culture each of E. coli BW25113 BACpks and E. coli BW25113 BACpksΔclbP was inoculated from frozen stocks and grown overnight at 37° C. in LB medium supplemented with 35 μg/ml chloramphenicol (LB+cam). Overnights were diluted 1:100 in fresh LB+cam+1% DMSO with the appropriate concentration of inhibitor and grown for 20 hours at 37° C. in a deep well plate in a shaking incubator. A 500 μL aliquot was taken from each sample, flash frozen in liquid nitrogen and lyophilized to dryness. Lyophilized pellets were extracted with 500 μL LC-MS grade methanol which contained 100 nM d27-N-myristoyl-D-asparagine as an internal standard, prepared as previously described, and vortexed for 30 seconds. After centrifugation at 16,500×g for 10 minutes in a tabletop microcentrifuge, supernatants were transferred to fresh 1.5 mL tubes and stored at −20° C. overnight. Samples were centrifuged again, and the supernatants analyzed by LC-MS/MS on a Waters Xevo TQ-S UPLC-triple quadrupole mass spectrometer using an Agilent Poroshell 120 EC-C18 column (2.7 μm, 4.6 mm×50 mm). […]

Where [11] appears, read: anaerobic, OD600 after 15 hours.

For the compound `N.N.[Cl][Pt][Cl]` [cisplatin, reference compound], the “abundance of FANCD2-Ub in HeLa cells” value in assay [1] is “increase in abundance of FANCD2-Ub”.

In the case of `O=C(N[C@H](CO)[C@H](O)c1ccc([N+](=O)[O-])cc1)C(Cl)Cl` [CAM, Chloramphenicol, reference compound], the MIC was 50 µM (≈ 16.2 µg/mL) in [2] (setting [11]); 25 µM (≈ 8.08 µg/mL) in assay [3] (Lactobacillus rhamnosus, anaerobic, OD600 after 15 hours); 6.25 µM (≈ 2.02 µg/mL) in [4] (setting [11]); 25 µM (≈ 8.08 µg/mL) in assay [5] (Escherichia coli NC101, anaerobic, OD600 after 15 hours); 12.5 µM (≈ 4.04 µg/mL) in [6] (setting [11]).

As to `CC1(C)OB([C@@H](CC(N)=O)NC(=O)c2ccc3ccccc3c2)OC1(C)C` [Compound 2], the MIC in assay [2] (15 h) is more than 200 µM; in assay [3] (15 h), more than 200 µM; in assay [4] (15 h) it was more than 200 µM; in assay [9], more than 200 µM; in assay [5] (Escherichia coli, NC101, 15 h), more than 200 µM; in assay [6] (15 h), more than 200 µM. Besides, the IC50 in [7] was found to be 0.0072 µM; in assay [8], 0.034 µM. Further, the “speed of reaching maximum potency, in words” value in assay [8] is given as “achieved their maximum potency faster than compound 4”.

With `CO[C@@]12[C@H](COC(N)=O)C3=C(C(=O)C(C)=C(N)C3=O)N1C[C@@H]1N[C@@H]12` [mitomycin C, reference compound], in assay [1], the “abundance of FANCD2-Ub in HeLa cells” value is reported as “increase in abundance of FANCD2-Ub”.

On to `CC1(C)OB([C@@H](CC(N)=O)NC(=O)c2ccccc2)OC1(C)C` [Compound 4], for which the MIC is more than 200 µM in assay [2] (15 h); more than 200 µM in assay [3] (15 h); more than 200 µM in assay [4] (15 h); more than 200 µM in assay [9]; more than 200 µM in assay [5] (Escherichia coli, NC101, 15 h); more than 200 µM in assay [6] (15 h). Further, the IC50 amounted to 0.027 µM in [7] and 0.069 µM in [8]. Also, the “speed of reaching maximum potency, in words” value in assay [8] is given as “showed a significant lag”. Besides, the “quantity of N-myristoyl-D-Asn prodrug released” value in [10] is reported as “slightly lower potency than the others”.

As to `CCCCCC(=O)N[C@H](CC(N)=O)B1OC(C)(C)C(C)(C)O1` [Compound 1], the MIC in assay [2] (15 h) was more than 200 µM; in assay [3] (15 h), more than 200 µM; in assay [4] (15 h), more than 200 µM; in [9] it was more than 200 µM; in assay [5] (Escherichia coli, NC101, 15 h), more than 200 µM; in [6] (15 h), more than 200 µM. Moreover, the IC50 in [7] was 0.0056 µM; in assay [8], 0.04 µM.

The values above are taken from US12115176B2, “Methods and compositions relating to ClbP inhibition” (PRESIDENT AND FELLOWS OF HARVARD COLLEGE, priority 2021, dated 2024).
